Assay results from patent US10570122B2, “Compounds with anti-tumoral activity” (AB Science, priority 2015, dated 2020).

Assays:
[1] = system: HL60; assay: CellTiter-Blue cell-based survival/proliferation assay, HL60; settings: Homo sapiens, HL-60, Leukemia cell line HL60, 48 h, read-out: Anti-tumoral activity (measured IC50) HL60
Method in brief: (§1)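 Tenfold compound dilutions (0–10 μM) were added to 1·10^4 cells/well. Plates incubated 48 h at 37 °C. CellTiter-Blue reduction (4 h, 37 °C) was read as fluorescence at 590 nm, background-corrected with a cell-free blank.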

[2] = system: HUT78; assay: CellTiter-Blue cell-based survival/proliferation assay, HUT78; settings: Homo sapiens, Lymphoma cell line HUT78, 48 h, read-out: Anti-tumoral activity (measured IC50) HUT78
Method: (§2) Cell-Based Proliferation Screening of Compounds
(§3) CellTiter-Blue cell-based survival/proliferation assay (Promega G8080) was performed on tumor cell lines. A total of 1·10^4 cells/well/50 μl were seeded in a 96-wells plate. Treatment was initiated by addition of a 2× drug solution of 1/10 serial dilutions ranging from 0 to 10 μM. Cells were grown for 48 h at 37° C. and then incubated with 10 μl/well of Promega CellTiter-Bleue reagent for 4 h at 37° C. The amount of resorufin dye formed was quantified by its fluorescence emission at 590 nm using a scanning multiwell spectrophotometer (OPTIMA, BMG labtech, France). A blank well without cells was used as a background control for the spectrophotometer.

[3] = system: KARPAS299; assay: CellTiter-Blue cell-based survival/proliferation assay, KARPAS299; settings: Homo sapiens, KARPAS-299, Lymphoma cell line KARPAS299, 48 h, read-out: Anti-tumoral activity (measured IC50) KARPAS299
Method: as §2, §3

[4] = system: REC1; assay: CellTiter-Blue cell-based survival/proliferation assay, REC1; settings: Homo sapiens, Lymphoma cell line REC1, 48 h, read-out: Anti-tumoral activity (measured IC50) REC1
Method: as §2, §3

[5] = system: OPM2; assay: CellTiter-Blue cell-based survival/proliferation assay, OPM2; settings: Homo sapiens, OPM-2, Myeloma cell line OPM2, 48 h, read-out: Anti-tumoral activity (measured IC50) OPM2
Method in brief: as §1

[6] = system: A498; assay: CellTiter-Blue cell-based survival/proliferation assay, A498; settings: Homo sapiens; A498 kidney tumor cell line, 48 h
Method in brief: as §1

[7] = system: A549; assay: CellTiter-Blue cell-based survival/proliferation assay, A549; settings: Homo sapiens; A549 lung tumor cell line, 48 h
Method in brief: as §1

[8] = system: ACHN; assay: CellTiter-Blue cell-based survival/proliferation assay, ACHN; settings: Homo sapiens; ACHN kidney tumor cell line, 48 h
Method in brief: as §1

[9] = system: AGS; assay: CellTiter-Blue cell-based survival/proliferation assay, AGS; settings: Homo sapiens; AGS stomach tumor cell line, 48 h
Method in brief: as §1

[10] = system: BT20; assay: CellTiter-Blue cell-based survival/proliferation assay, BT20; settings: Homo sapiens, BT-20; BT20 breast tumor cell line, 48 h
Method in brief: as §1

[11] = system: BXPC3; assay: CellTiter-Blue cell-based survival/proliferation assay, BXPC3; settings: Homo sapiens, BXPC-3; BXPC3 pancreas tumor cell line, 48 h
Method in brief: as §1

[12] = system: CALU6; assay: CellTiter-Blue cell-based survival/proliferation assay, CALU6; settings: Homo sapiens, Calu-6; CALU6 lung tumor cell line, 48 h
Method in brief: as §1

[13] = system: CLS354; assay: CellTiter-Blue cell-based survival/proliferation assay, CLS354; settings: Homo sapiens, CLS-354; CLS354_4 head & neck tumor cell line, 48 h
Method in brief: as §1

[14] = system: DLD1; assay: CellTiter-Blue cell-based survival/proliferation assay, DLD1; settings: Homo sapiens, DLD-1; DLD_1 colorectal tumor cell line, 48 h
Method in brief: as §1

[15] = system: DU145; assay: CellTiter-Blue cell-based survival/proliferation assay, DU145; settings: Homo sapiens, DU-145; DU145 prostate tumor cell line, 48 h
Method in brief: as §1

[16] = system: H1299; assay: CellTiter-Blue cell-based survival/proliferation assay, H1299; settings: Homo sapiens, NCI-H1299; H1299 lung tumor cell line, 48 h
Method in brief: as §1

[17] = system: HCT116; assay: CellTiter-Blue cell-based survival/proliferation assay, HCT116; settings: Homo sapiens, HCT-116; HCT116 colorectal tumor cell line, 48 h
Method in brief: as §1

[18] = system: HEP2; assay: CellTiter-Blue cell-based survival/proliferation assay, HEP2; settings: Homo sapiens, HEp-2; HEP2 head & neck tumor cell line, 48 h
Method in brief: as §1

[19] = system: HEPG2; assay: CellTiter-Blue cell-based survival/proliferation assay, HEPG2; settings: Homo sapiens; HEPG2 liver tumor cell line, 48 h
Method in brief: as §1

[20] = system: HGC27; assay: CellTiter-Blue cell-based survival/proliferation assay, HGC27; settings: Homo sapiens, HGC-27; HGC27 stomach tumor cell line, 48 h
Method in brief: as §1

[21] = system: MDAMB231; assay: CellTiter-Blue cell-based survival/proliferation assay, MDAMB231; settings: Homo sapiens, MDA-MB-231; MDAMB231 breast tumor cell line, 48 h
Method in brief: as §1

[22] = system: MESSA; assay: CellTiter-Blue cell-based survival/proliferation assay, MESSA; settings: Homo sapiens, MES-SA; MESSA ovary tumor cell line, 48 h
Method in brief: as §1

[23] = system: PANC1; assay: CellTiter-Blue cell-based survival/proliferation assay, PANC1; settings: Homo sapiens, PANC-1; PANC_1 pancreas tumor cell line, 48 h
Method in brief: as §1

[24] = system: PC3; assay: CellTiter-Blue cell-based survival/proliferation assay, PC3; settings: Homo sapiens, PC-3; PC3 prostate tumor cell line, 48 h
Method in brief: as §1

[25] = system: PLCPRF5; assay: CellTiter-Blue cell-based survival/proliferation assay, PLCPRF5; settings: Homo sapiens, PLC-PRF-5; PLC_PRF5 liver tumor cell line, 48 h
Method in brief: as §1

[26] = system: SW579; assay: CellTiter-Blue cell-based survival/proliferation assay, SW579; settings: Homo sapiens; SW579 head & neck tumor cell line, 48 h
Method in brief: as §1

[27] = system: TOV112D; assay: CellTiter-Blue cell-based survival/proliferation assay, TOV112D; settings: Homo sapiens; TOV112D ovary tumor cell line, 48 h
Method in brief: as §1

[28] = system: panel of about 34 human tumor cell lines; assay: Cell-based proliferation screening on panel of tumor cell lines; settings: solid tumor cell line, cell line unknown, 48 h, read-out: IC50, solid tumor cell line of column 6 (last section of Table 3)
Method in brief: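 CellTiter-Blue survival assay with 1·10^4 cells/well, each line treated 48 h at 37° C with 1/10 serial dilutions from 0 to 10 μM. Resorufin formed during a 4 h reagent incubation is read by fluorescence at 590 nm. A cell-free blank serves as background.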

With `Cc1ccc(OCCN(C)C)cc1Nc1ncc(-c2ccc(-n3cccn3)cc2)o1` [Example 030, [5-(2-Dimethylamino-ethoxy)-2-methyl-phenyl]-[5-(4-pyrazol-1-yl-phenyl)-oxazol-2-yl]-amine] the IC50 [1] was > 1000 nM, the IC50 [2] was > 1000 nM and the IC50 [3] was > 1000 nM. For the same molecule, the IC50 [4] was > 1000 nM, the IC50 [5] was > 1000 nM and the IC50 [6] was > 1000 nM. For the same molecule, the IC50 [7] was > 1000 nM, the IC50 [8] was > 1000 nM and the IC50 [9] was > 1000 nM. For the same molecule, the IC50 [10] was > 1000 nM, the IC50 [11] was > 1000 nM and the IC50 [12] was > 1000 nM. For the same molecule, the IC50 [13] was > 1000 nM, the IC50 [14] was > 1000 nM and the IC50 [15] was > 1000 nM. The IC50 [16] was > 1000 nM, the IC50 [17] was > 1000 nM and the IC50 [18] was > 1000 nM. The IC50 [19] was > 1000 nM, the IC50 [20] was > 1000 nM and the IC50 [21] was > 1000 nM. For the same molecule, the IC50 [22] was > 1000 nM, the IC50 [23] was > 1000 nM and the IC50 [24] was > 1000 nM. The IC50 [25] was > 1000 nM, the IC50 [26] was > 1000 nM and the IC50 [27] was > 1000 nM. For the same molecule, the IC50 [28] was > 1000 nM.
`CNC(=O)c1ccc(C)c(Nc2ncc(-c3ccc(-n4cccn4)cc3)o2)c1` [Example 031, 4,N-Dimethyl-3-[5-(4-pyrazol-1-yl-phenyl)-oxazol-2-ylamino]-benzamide] was tested, and the IC50 [1] was > 1000 nM, the IC50 [2] was > 1000 nM and the IC50 [3] was 100 to 500 nM. The IC50 [4] was > 1000 nM, the IC50 [5] was > 1000 nM and the IC50 [6] was > 1000 nM. The IC50 [7] was > 1000 nM, the IC50 [8] was > 1000 nM and the IC50 [9] was > 1000 nM. For the same molecule, the IC50 [10] was > 1000 nM, the IC50 [11] was > 1000 nM and the IC50 [12] was > 1000 nM. The IC50 [13] was > 1000 nM, the IC50 [14] was > 1000 nM and the IC50 [15] was > 1000 nM. The IC50 [16] was > 1000 nM, the IC50 [17] was > 1000 nM and the IC50 [18] was > 1000 nM. The IC50 [19] was > 1000 nM, the IC50 [20] was > 1000 nM and the IC50 [21] was > 1000 nM. The IC50 [22] was > 1000 nM, the IC50 [23] was > 1000 nM and the IC50 [24] was > 1000 nM. The IC50 [25] was > 1000 nM, the IC50 [26] was > 1000 nM and the IC50 [27] was > 1000 nM. The IC50 [28] was > 1000 nM.
For `Cc1ccc(C(=O)NCCN2CCN(C)CC2)cc1Nc1ncc(-c2ccc(-n3cccn3)cc2)o1` [Example 032, 4-Methyl-N-[2-(4-methyl-piperazin-1-yl)-ethyl]-3-[5-(4-pyrazol-1-yl-phenyl)-oxazol-2-ylamino]-benzamide], the IC50 [1] was > 1000 nM, the IC50 [2] was > 1000 nM and the IC50 [3] was > 1000 nM. The IC50 [4] was > 1000 nM, the IC50 [5] was > 1000 nM and the IC50 [6] was > 1000 nM. The IC50 [7] was > 1000 nM, the IC50 [8] was > 1000 nM and the IC50 [9] was > 1000 nM. The IC50 [10] was > 1000 nM, the IC50 [11] was > 1000 nM and the IC50 [12] was > 1000 nM. The IC50 [13] was > 1000 nM, the IC50 [14] was > 1000 nM and the IC50 [15] was > 1000 nM. For the same molecule, the IC50 [16] was > 1000 nM, the IC50 [17] was > 1000 nM and the IC50 [18] was > 1000 nM. The IC50 [19] was > 1000 nM, the IC50 [20] was > 1000 nM and the IC50 [21] was > 1000 nM. The IC50 [22] was > 1000 nM, the IC50 [23] was > 1000 nM and the IC50 [24] was > 1000 nM. For the same molecule, the IC50 [25] was > 1000 nM, the IC50 [26] was > 1000 nM and the IC50 [27] was > 1000 nM. The IC50 [28] was > 1000 nM.
